A short description of test [1]: Inhibition of FAO in hepatocytes. In kind it is cell-based. The note with it: hepatocyte.
The species entered for test [2] is Rattus norvegicus. The test is described as follows: Reduction in ketone bodies in 48 hrs fasted rat. In kind it is functional. Set-up: scale not given: the % may be the effect or the level left.
The species entered for test [3] is Rattus norvegicus. The test is described as follows: Inhibition of CPT1A activity in 48 hrs fasted rat. In kind it is functional.
The subject of the next test is Hepatocyte. The test is described as follows: Increase in palmitate oxidation rat hepatocytes a at 80 uM. The class given is functional.
Test [4] in a line: Inhibition of human FAO.
For test [5], the target named is T1, Carnitine O-palmitoyltransferase 1, liver isoform (Homo sapiens) (UniProt P50416).
T1 sequence (whole entry): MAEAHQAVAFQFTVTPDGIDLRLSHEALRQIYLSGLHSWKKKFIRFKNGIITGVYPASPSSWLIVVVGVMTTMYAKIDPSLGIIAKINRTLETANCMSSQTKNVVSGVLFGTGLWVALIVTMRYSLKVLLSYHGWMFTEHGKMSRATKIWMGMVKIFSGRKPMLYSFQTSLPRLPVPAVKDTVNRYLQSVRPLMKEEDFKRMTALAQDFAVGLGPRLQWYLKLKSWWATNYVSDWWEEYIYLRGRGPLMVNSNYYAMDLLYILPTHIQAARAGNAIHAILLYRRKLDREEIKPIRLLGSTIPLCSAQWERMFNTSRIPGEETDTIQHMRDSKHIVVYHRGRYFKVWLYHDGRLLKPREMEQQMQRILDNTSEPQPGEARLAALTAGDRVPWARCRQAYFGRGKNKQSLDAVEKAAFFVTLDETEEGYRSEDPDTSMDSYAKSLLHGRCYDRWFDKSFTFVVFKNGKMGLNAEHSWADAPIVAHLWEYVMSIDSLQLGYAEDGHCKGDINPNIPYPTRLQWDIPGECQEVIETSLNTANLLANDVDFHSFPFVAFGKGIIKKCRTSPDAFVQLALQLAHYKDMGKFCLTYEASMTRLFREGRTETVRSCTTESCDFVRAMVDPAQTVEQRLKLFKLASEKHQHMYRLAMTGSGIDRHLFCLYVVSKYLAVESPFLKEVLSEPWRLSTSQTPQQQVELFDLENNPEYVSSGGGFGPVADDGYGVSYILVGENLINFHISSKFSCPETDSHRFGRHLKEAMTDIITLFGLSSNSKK
The test is described as follows: Increase in liver CPT1 activity expressed in yeast mitochondrial extracts.

The nature of test [6]: Inhibition of rat FAO.
Test [7] has as its system Mus musculus. In words: Increase in energy production in DIO mouse at 15 mg/kg, ip administered single dose. The class given is functional. To be noted: route intraperitoneal.
Test [8] has as its system Mus musculus. In words: Induction of weight loss in DIO mouse at 15 mg/kg, ip administered single dose measured 20 hrs post dose (reference value: 2 %). The class given is functional. The note with it: route intraperitoneal.
Test [9] has as its target Carnitine O-palmitoyltransferase 1, muscle isoform (Homo sapiens) (UniProt Q92523). In words: Increase in muscle CPT1 activity expressed in yeast mitochondrial extracts. The note with it: Muscle tissue.
In test [10] the target is Carnitine O-palmitoyltransferase 1, liver isoform (Rattus norvegicus) (UniProt P32198). In words: Increase in CPT1 activity in rat hepatocytes using [3H]carnitine by radiometric assay. To be noted: Hepatocyte. The class given is cell-based.
Carnitine O-palmitoyltransferase 1, liver isoform (Rattus norvegicus), sequence (P32198 whole entry, canonical isoform): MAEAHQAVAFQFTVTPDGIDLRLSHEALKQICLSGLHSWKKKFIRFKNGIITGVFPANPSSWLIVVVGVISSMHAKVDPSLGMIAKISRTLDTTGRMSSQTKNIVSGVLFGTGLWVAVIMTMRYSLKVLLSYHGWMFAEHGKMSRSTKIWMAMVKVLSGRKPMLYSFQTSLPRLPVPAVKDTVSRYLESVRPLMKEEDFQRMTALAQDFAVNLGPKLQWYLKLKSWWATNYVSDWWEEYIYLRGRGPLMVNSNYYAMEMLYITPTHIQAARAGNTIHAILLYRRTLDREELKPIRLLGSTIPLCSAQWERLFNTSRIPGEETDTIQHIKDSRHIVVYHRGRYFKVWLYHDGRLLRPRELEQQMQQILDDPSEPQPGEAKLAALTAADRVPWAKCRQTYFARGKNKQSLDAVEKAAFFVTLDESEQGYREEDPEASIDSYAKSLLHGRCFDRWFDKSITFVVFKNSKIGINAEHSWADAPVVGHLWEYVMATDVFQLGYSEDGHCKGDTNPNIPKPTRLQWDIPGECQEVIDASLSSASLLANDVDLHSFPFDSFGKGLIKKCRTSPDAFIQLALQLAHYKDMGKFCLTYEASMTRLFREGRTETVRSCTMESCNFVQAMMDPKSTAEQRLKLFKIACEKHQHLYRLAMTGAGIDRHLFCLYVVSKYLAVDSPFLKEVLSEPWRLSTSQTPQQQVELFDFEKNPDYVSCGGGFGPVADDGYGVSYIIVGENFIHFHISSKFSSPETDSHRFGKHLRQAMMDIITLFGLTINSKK
The target of test [11] is T2, Carnitine O-palmitoyltransferase 2, mitochondrial (Homo sapiens, UniProt P23786).
T2 sequence (P23786 whole entry): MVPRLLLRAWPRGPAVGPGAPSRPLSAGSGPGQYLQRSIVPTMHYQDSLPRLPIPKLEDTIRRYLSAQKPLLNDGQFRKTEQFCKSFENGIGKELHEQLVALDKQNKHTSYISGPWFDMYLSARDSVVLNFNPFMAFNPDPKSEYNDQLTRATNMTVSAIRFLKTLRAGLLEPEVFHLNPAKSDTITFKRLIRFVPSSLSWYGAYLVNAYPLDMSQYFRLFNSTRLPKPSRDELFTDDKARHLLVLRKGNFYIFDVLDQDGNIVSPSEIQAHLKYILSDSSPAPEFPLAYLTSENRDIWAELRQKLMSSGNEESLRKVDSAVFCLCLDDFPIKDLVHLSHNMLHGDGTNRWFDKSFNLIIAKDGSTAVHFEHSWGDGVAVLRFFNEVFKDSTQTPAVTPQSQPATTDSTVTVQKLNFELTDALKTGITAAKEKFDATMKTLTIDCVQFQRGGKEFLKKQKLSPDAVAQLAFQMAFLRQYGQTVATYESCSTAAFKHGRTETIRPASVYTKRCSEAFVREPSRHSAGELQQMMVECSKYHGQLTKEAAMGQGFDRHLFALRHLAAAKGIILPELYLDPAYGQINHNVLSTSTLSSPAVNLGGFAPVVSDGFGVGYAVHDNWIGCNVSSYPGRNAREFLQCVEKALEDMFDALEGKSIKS
In words: Inhibition of human CPT2.

The target in test [12] is T3, Carnitine O-palmitoyltransferase 1, liver isoform (Homo sapiens, UniProt P50416).
T3 sequence (P50416 whole entry): T1 sequence (whole entry)
The test is described as follows: Inhibition of human CPT1A.

In test [13] the target is T4, Carnitine O-palmitoyltransferase 2, mitochondrial (Rattus norvegicus, UniProt P18886).
T4 sequence (P18886 whole entry): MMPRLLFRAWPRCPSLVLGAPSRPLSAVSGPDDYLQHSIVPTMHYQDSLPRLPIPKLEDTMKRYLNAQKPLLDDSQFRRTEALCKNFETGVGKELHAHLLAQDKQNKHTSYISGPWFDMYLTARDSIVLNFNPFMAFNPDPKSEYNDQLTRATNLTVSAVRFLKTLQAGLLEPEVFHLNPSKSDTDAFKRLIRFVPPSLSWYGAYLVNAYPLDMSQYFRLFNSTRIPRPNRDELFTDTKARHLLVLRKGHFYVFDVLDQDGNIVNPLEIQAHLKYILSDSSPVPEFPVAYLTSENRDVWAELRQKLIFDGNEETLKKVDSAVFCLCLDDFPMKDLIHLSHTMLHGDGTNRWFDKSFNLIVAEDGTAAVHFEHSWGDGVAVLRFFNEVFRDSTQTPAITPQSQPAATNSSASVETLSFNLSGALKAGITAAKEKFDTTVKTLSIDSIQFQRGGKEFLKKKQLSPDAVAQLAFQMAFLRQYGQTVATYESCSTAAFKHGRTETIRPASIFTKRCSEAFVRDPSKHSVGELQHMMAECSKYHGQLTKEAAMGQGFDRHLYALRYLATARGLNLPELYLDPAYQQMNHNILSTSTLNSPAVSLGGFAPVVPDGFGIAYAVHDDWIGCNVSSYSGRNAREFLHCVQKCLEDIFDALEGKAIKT
In words: Inhibition of rat CPT2.

In test [14] the target is T5, Carnitine O-palmitoyltransferase 1, muscle isoform (Homo sapiens, UniProt Q92523).
T5 sequence (Q92523 whole entry): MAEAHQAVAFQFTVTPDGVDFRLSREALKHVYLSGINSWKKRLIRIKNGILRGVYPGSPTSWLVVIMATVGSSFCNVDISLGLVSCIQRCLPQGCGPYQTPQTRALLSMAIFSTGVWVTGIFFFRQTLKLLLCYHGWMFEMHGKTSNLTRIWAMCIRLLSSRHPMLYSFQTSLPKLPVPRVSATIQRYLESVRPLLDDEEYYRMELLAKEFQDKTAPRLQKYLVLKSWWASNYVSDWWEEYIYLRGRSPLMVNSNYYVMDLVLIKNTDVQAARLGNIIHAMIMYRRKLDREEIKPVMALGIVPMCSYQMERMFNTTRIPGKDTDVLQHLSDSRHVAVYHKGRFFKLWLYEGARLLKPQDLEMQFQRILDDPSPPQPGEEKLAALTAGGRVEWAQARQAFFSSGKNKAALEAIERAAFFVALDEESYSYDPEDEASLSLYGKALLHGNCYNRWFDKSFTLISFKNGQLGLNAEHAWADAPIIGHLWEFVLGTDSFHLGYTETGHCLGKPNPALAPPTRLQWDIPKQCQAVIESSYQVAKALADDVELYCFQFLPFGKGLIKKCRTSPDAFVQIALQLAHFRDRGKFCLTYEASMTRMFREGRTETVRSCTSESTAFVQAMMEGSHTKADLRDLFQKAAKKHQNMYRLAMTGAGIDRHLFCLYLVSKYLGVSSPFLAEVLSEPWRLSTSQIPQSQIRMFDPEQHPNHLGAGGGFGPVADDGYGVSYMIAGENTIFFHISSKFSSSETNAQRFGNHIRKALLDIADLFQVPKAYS
In words: Inhibition of human CPT1B.

For test [15], the target named is T5, Carnitine O-palmitoyltransferase 1, muscle isoform. The test is described as follows: Inhibition of CPT1B in heart mitochondria.
The target is the same in test [16]. In words: Inhibition of CPT1B in liver mitochondria.

The source of these data is ChEMBL document CHEMBL2216752, “Carnitine palmitoyltransferase (CPT) modulators: a medicinal chemistry perspective on 35 years of research” (J Med Chem, 2011).

By IC50 is commonly meant the concentration needed to halve the response being measured. Compound `CCCCCCOc1cccc(OCCCCCC(=O)NC2(CC(=O)[O-])CC[N+](C)(C)CC2)c1` displayed an IC50 in test [1] of 19 µM.
As to `CCCCCCCCCCCCCC[C@]1(C(=O)OC)CO1` (racemic), in the test filed under Rattus norvegicus [2], the Activity came to 90%. Moreover, the “inhibition (INH)” value in the test listed under Rattus norvegicus [3] is reported as 90%.
Take `C=C1C(=O)O[C@H](CCCCCCCC)[C@H]1C(=O)O`: the Activity in the test with Hepatocyte stood at 750%; in test [5], 20%; with Mus musculus [7], 32.9%; in the test on Mus musculus [8] it was 4.4%; in test [9], 20%; in [10], 250%. For the same compound, the values for the half-inhibitory concentration (IC50) in test [4] and in test [6] were 21.9 µM and greater than 100 µM, respectively.
For the compound `O=C(O)C(=O)c1ccc(O)cc1`, the IC50 was 33.3 µM in [4]; greater than 100 µM in test [11]; greater than 100 µM in [6]; greater than 100 µM in test [12]; greater than 100 µM in test [13]; 60.3 µM in test [14]. Besides, the IC50 stood at 11 µM in test [15] and 510 µM in test [16].
